The target of experiment [1] is T1, Transporter, GABA (Rattus norvegicus, UniProt P23978).
T1 construct: tissue Eurofins Panlabs 226400; host or cells: rat brain membranes (own knowledge of the vendor's assay and of the cited Shank et al. 1990 method)
Kind of experiment: GABA transporter radioligand binding assay (Cat # 226400). Here is the method:
The activity of compound Compound 5 was evaluated in Radioligand Binding assays. Methods employed herein have been adapted from the scientific literature to maximize reliability and reproducibility. Reference standards were run as an integral part of each assay to ensure the validity of the results obtained. Where presented, IC50 values were determined by a non-linear, least squares regression analysis using MathIQ™ (ID Business Solutions Ltd., UK). Where inhibition constants (K) are presented, the Ki values were calculated using the equation of Cheng and Prusoff (Cheng, Y., Prusoff, W. H., Biochem. Pharmacol. 22:3099-3108, 1973) using the observed IC50 of the tested compound, the concentration of radioligand employed in the assay, and the historical values for the KD of the ligand (obtained experimentally at Eurofins Panlabs, Inc.). Where presented, the Hill coefficient (nH), defining the slope of the competitive binding curve, was calculated using MathIQ™. […] Where IC50, Ki and/or nH data are presented without Standard Error of the Mean (SEM), data are insufficient to be quantitative.
Biochemical assay results are presented as the percent inhibition of specific binding or activity. All other results are expressed in terms of the quantitation method of that assay. For primary assays, only the lowest concentration with a significant response, judged by the criteria of the assay, is shown in this summary. […] Unless otherwise requested, primary screening in duplicate with quantitative data (e.g., IC50±SEM, Ki ±SEM and nH) are shown where applicable for individual requested assays.
J Neurochem. 54:2007-2015.

Experiment [2] relates to large diameter neurons cultured from DRGs of Mecp2 and Shank3 mutant mice. Kind of experiment: Whole cell patch-clamp recordings of cultured DRG neurons. The conditions noted are these: 10 μM isoguvacine. The format is cell-based, mouse. Here is the method: FIGS. 27A-27K are related to FIGS. 19A-19N. FIGS. 27A-27B: Representative traces from large diameter neurons cultured from DRGs of control (FIG. 27A) and Mecp2^STOP/y (FIG. 27B) mice during whole cell current clamp recordings, in which the minimal amount of current required to elicit an action potential in each neuron (rheobase, Rh), was determined in the absence or presence of 10 μm isoguvacine. FIG. 27C: Quantification of average Rh in large diameter neurons cultured from DRGs of control mice during a baseline period and then in presence of 10 μm isoguvacine. Repeated measures one-way ANOVA, post-hoc Tukey's test, *, p<0.05. FIG. 27D: Quantification of average Rh in large diameter neurons cultured from DRGs of control mice during a baseline period, followed application of 10 μm isoguvacine, then washout period. […] FIG. 27E: Quantification of average Rh in large diameter neurons cultured from DRGs of control and Mecp2^STOP/y mice during a baseline period and then in presence of 10 μm isoguvacine. […] FIG. 27F: Quantification of average Rh in large diameter neurons cultured from DRGs of control and Shank3B^+/− mice during a baseline period and then in presence of 10 μm isoguvacine. […] FIG. 27G: Quantification of total Ih density at each hyperpolarizing voltage step for large diameter neurons cultured from DRGs of control, Mecp2^STOP/y and Shank3B^+/− mutant mice. […]
In general terms: In patch-clamp work, channel activity is measured electrically.

Counter-ions that a name gives are not always drawn.

The term IC50 denotes the concentration that gives 50% inhibition. A lower IC50 goes with inhibition by little substance. A word on the Ki: it is the dissociation constant of the complex between target and ligand, obtained from inhibition or displacement. One may read the inhibition as the drop in the measured response relative to a control, in per cent. For the compound `NC1C=C(C(=O)O)CCC1` (stereo not drawn) [Compound 5, 3-aminocyclohex-1-enecarboxylic acid hydrochloride], in experiment [1], the “GABA transporter inhibition (in words)” value is “potent GABA transporter inhibitor”; the IC50 turned out to be 28.1 µM; the affinity, expressed as Ki, was 27.5 µM; the inhibition at 30 µM was 52%. In addition, the inhibition at 0.1 µM in experiment [1] (Conc. 0.1 μM) was -10%. In experiment [1] (Conc. 0.3 μM), the inhibition at 0.3 µM was found to be 3%. Besides, the inhibition at 1 µM in experiment [1] (Conc. 1 μM) is -1%. Moreover, in experiment [1] (Conc. 3 μM), the inhibition at 3 µM worked out at 2%. The inhibition at 10 µM in experiment [1] (Conc. 10 μM) was 19%. Further, in experiment [1] (Conc. 100 μM), the inhibition at 100 µM amounted to 86%. Moreover, the inhibition at 300 µM in experiment [1] (Conc. 300 μM) worked out at 97%. Also, in experiment [1] (Conc. 1 mM), the inhibition at 1000 µM came out at 104%. Besides, the “nH (Hill coefficient)” value in experiment [1] (slope of competitive binding curve) is given as 1.47.
Turning to `O=C(O)C1=CCNCC1` [Isoguvacine, isoguvacine], in experiment [2] (large diameter DRG neurons), the Ih entry is “without affecting Ih”. In addition, the “hyperexcitability phenotype (rheobase) of large diameter DRG neurons” value in experiment [2] (neurons from Mecp2 and Shank3 mutant mice) is listed as “reduced the hyperexcitability phenotype”.

The values are drawn from patent US12252457B2, “Compositions and methods for reducing tactile dysfunction, anxiety, and social impairment” (President and Fellows of Harvard College, priority 2018, dated 2025).
